The nature of series [1]: Selectivity index, ratio of CC50 for MT4 cells to IC50 for HIV1 3B. The series is classed as functional.
Series [2] deals with Human immunodeficiency virus 2. Briefly: Antiviral activity against HIV2 ROD in MT4 cells after 4 days by MTT method. It counts as functional, organism-based. The note with it: Human immunodeficiency virus 2, ROD, MT4, 96 h.
The nature of series [3]: Cytotoxicity against MT4 cells after 4 days by MTT method. The note with it: human. It counts as cell-based.
Series [4] relates to Human immunodeficiency virus 1. Briefly: Antiviral activity against HIV1 3B in MT4 cells after 4 days by MTT method. It counts as functional, organism-based. The conditions noted are these: Human immunodeficiency virus 1, 3B, MT4, 96 h.

In the case of `CCc1c(C(=O)c2cccc3ccccc23)n(CC#Cc2ccccc2)c(=O)[nH]c1=O`, the “Ratio CC50/IC50” value in series [1] stood at 83. For the same compound, the IC50 in series [2] is more than 17 µM; in series [4], 0.21 µM. The CC50 at 96 h in series [3] turned out to be 17 µM.

For `CC(C)=CCn1c(C(=O)c2cccc3ccccc23)c(C)c(=O)[nH]c1=O`, the “Ratio CC50/IC50” value in series [1] was less than 1. Further, the IC50 in series [2] is more than 131 µM; in series [4], more than 44.6 µM. Also, it took 44.6 µM to reach half-maximal cytotoxicity in series [3] (CC50 at 96 h).

Take `Cc1c(C(=O)c2cccc3ccccc23)n(CC#Cc2ccccc2)c(=O)[nH]c1=O`: the “Ratio CC50/IC50” value in series [1] was determined as 11. For the same compound, the IC50 in series [2] is more than 29.9 µM; in series [4] it was 2.79 µM. Half-maximal cytotoxicity in series [3] (CC50 at 96 h) was put at 29.9 µM.

For `C=CCOCn1c(C(=O)c2cccc3ccccc23)c(C)c(=O)[nH]c1=O`, the “Ratio CC50/IC50” value in series [1] was found to be 62. Moreover, the IC50 was more than 131 µM in series [2] and 2.11 µM in series [4]. In series [3], this compound registered a CC50 at 96 h of 131 µM.

For the compound `O=c1[nH]cnc2c1ncn2[C@H]1CC[C@@H](CO)O1` [DIDANOSINE], in series [1], the “Ratio CC50/IC50” value was “>=98”. Further, the CC50 at 96 h in series [3] is not below 529 µM.

With `Cc1c(Sc2ccccc2)n(COCCO)c(=O)[nH]c1=O` [HEPT], the “Ratio CC50/IC50” value in series [1] is recorded as 80. In addition, the IC50 in series [2] is more than 406 µM. Moreover, the 50% cytotoxic concentration (CC50) at 96 h in series [3] amounted to 405 µM.

As for `CCc1c(C(=O)c2cccc3ccccc23)n(C/C=C/C(=O)OC)c(=O)[nH]c1=O`, in series [1], the “Ratio CC50/IC50” value turned out to be 54. In addition, the figures for the IC50 in series [2] and in series [4] were more than 38.6 µM and 0.71 µM, respectively. In series [3], this compound had a CC50 at 96 h of 38.6 µM.

With `CCOCn1c(C(=O)c2cccc3ccccc23)c(C)c(=O)[nH]c1=O`, in series [1], the “Ratio CC50/IC50” value is given as 13. Moreover, the IC50 was more than 51.7 µM in series [2] and 4.02 µM in series [4]. In series [3], the CC50 at 96 h was 51.7 µM.

`CCc1c(C(=O)c2cccc3ccccc23)n(CC2CC=CC2)c(=O)[nH]c1=O`: the “Ratio CC50/IC50” value in series [1] is given as 84. Also, the IC50 was more than 18.6 µM in series [2] and 0.22 µM in series [4]. This compound also gave a CC50 at 96 h in series [3] of 18.6 µM.

Regarding `CCc1c(C(=O)c2cccc3ccccc23)n(COCC=C(C)C)c(=O)[nH]c1=O`, the “Ratio CC50/IC50” value in series [1] amounted to 5. The IC50 in series [2] was more than 36.4 µM; in series [4], 6.89 µM. This compound also came in with a CC50 at 96 h in series [3] of 36.4 µM.

Consider `Cc1c(C(=O)c2cccc3ccccc23)n(COCc2ccccc2)c(=O)[nH]c1=O`, for which the “Ratio CC50/IC50” value in series [1] is recorded as 29. In addition, the IC50 in series [2] is more than 45.6 µM; in series [4], 1.6 µM. Half-maximal cytotoxicity in series [3] (CC50 at 96 h) was put at 45.6 µM.

As to `CCOCn1c(C(=O)c2cccc3ccccc23)c(CC)c(=O)[nH]c1=O`, the “Ratio CC50/IC50” value in series [1] is listed as 78. Further, the IC50 in series [2] was more than 23 µM; in series [4] it was 0.28 µM. Moreover, the midpoint of cytotoxicity in series [3], the CC50 at 96 h, lay at 23 µM.

In the case of `CCc1c(C(=O)c2cccc3ccccc23)n(COCc2ccccc2)c(=O)[nH]c1=O`, in series [1], the “Ratio CC50/IC50” value was determined as 257. The IC50 in series [2] was more than 38.6 µM; in series [4] it was 0.15 µM. In series [3], this compound displayed a half-maximal cytotoxic concentration (CC50) at 96 h of 38.6 µM.

With `CCc1c(C(=O)c2cccc3ccccc23)n(COCC2CC2)c(=O)[nH]c1=O`, the “Ratio CC50/IC50” value in series [1] worked out at 48. The IC50 was more than 45.3 µM in series [2] and 0.93 µM in series [4]. Also, the CC50 at 96 h in series [3] is 45.3 µM.

Consider `C=CCOCn1c(C(=O)c2cccc3ccccc23)c(CC)c(=O)[nH]c1=O`, for which, in series [1], the “Ratio CC50/IC50” value was 243. The IC50 was more than 45.6 µM in series [2] and 0.19 µM in series [4]. Further, in series [3], the midpoint of cytotoxicity, the CC50 at 96 h, lay at 45.6 µM.

For the compound `CC(C)=CCn1c(C(=O)c2cccc3ccccc23)c(C(C)C)c(=O)[nH]c1=O`, the “Ratio CC50/IC50” value in series [1] is recorded as 13. In addition, the IC50 was more than 30.8 µM in series [2] and 2.42 µM in series [4]. In addition, in series [3], the CC50 at 96 h amounted to 30.8 µM.

As for `CC(=O)OC/C=C(\C)Cn1c(C(=O)c2cccc3ccccc23)c(C)c(=O)[nH]c1=O`, the “Ratio CC50/IC50” value in series [1] was found to be 5. Besides, the IC50 in series [2] was more than 200 µM; in series [4] it was 41.4 µM. In series [3], this compound came in with a CC50 at 96 h of 200 µM.

For `CC(C)c1c(C(=O)c2cccc3ccccc23)n(COCc2ccccc2)c(=O)[nH]c1=O`, in series [1], the “Ratio CC50/IC50” value is 233. The IC50 was more than 26.9 µM in series [2] and 0.11 µM in series [4]. In series [3], this compound had a CC50 at 96 h of 26.9 µM.

As to `CCc1c(C(=O)c2cccc3ccccc23)n(COCc2ccc([N+](=O)[O-])cc2)c(=O)[nH]c1=O`, in series [1], the “Ratio CC50/IC50” value was determined as 55. Further, the concentration for half-maximal inhibition (IC50) is more than 30.5 µM in series [2] and 0.54 µM in series [4]. Besides, the CC50 at 96 h in series [3] worked out at 30.5 µM.

For `Cc1c(C(=O)c2cccc3ccccc23)n(COCC2CC2)c(=O)[nH]c1=O`, in series [1], the “Ratio CC50/IC50” value was 10. In addition, the IC50 in series [2] is more than 77.6 µM; in series [4], 7.69 µM. Further, in series [3], the CC50 at 96 h came out at 77.6 µM.

Values taken from ChEMBL document CHEMBL1142880, “Synthesis and anti-HIV activity evaluation of 1-[(alkenyl or alkynyl or alkyloxy)methyl]-5-alkyl-6-(1-naphthoyl)-2,4-pyrimidinediones as novel non-nucleoside HIV-1 reverse transcriptase inhibitors” (Eur J Med Chem, 2007).
